Measured values published in US20150175655A1 (priority 2012, published 2015).

What was measured:
Type in all cases: cell-based
[1] = test system: genotype 1b stable HCV replicon in Huh-7-derived cells; assay: Stable subgenomic HCV replicon EC50, genotype 1b (Renilla luciferase); conditions: Hepatitis C virus, stable replicon genotype 1b, 72 h, read-out: EC50 1B RLUC
Protocol: (§1) Antiviral potency (EC50) was determined in both stable subgenomic HCV replicon cell lines and transient-transfected HCV replicon cells. The term half maximal effective concentration (EC50) refers to the concentration of a drug which induces a response halfway between the baseline and maximum after the exposure time specified below.
(§2) Stable subgenomic HCV replicons for genotype 1a, 1 b, 2a, 3a, and 4a were established in Huh-7-derived cells as described by Lohmann et al (Lohmann V, Korner F, Koch J, et al Replication of subgenomic hepatitis C virus RNAs in a hepatoma cell line. Science 1999; 285:119-3). Each stable cell line contains a bicistronic HCV replicon that encodes a humanized Renilla luciferase (hRLuc) reporter gene fused to a selectable neomycin-resistance gene, followed by an EMCV IRES and the NS3-NS5B coding region of HCV. […] Luciferase activity was measured as a marker for intracellular HCV replication levels.
(§3) The genotype 1a stable replicon was derived from the H77 HCV strain and contained adaptive mutations P1496L and S2204I. The genotype 1 b stable replicon was derived from the Cont HCV strain and contained adaptive mutations E1202G, T1280I, and K1846T. […] The genotype 3a stable replicon was derived from the S52 HCV strain and contained adaptive mutations P1121 L, A1198T and S2210I (equivalent to S2204I in genotype 1). The genotype 4a stable replicon was derived from the ED43 HCV strain and contained adaptive mutations Q1691R and S2204I. All replicon cell lines were propagated in Huh-7-derived cells and maintained in Dulbecco's modified Eagle's Medium (DMEM) supplemented with 10% fetal bovine serum (FBS) and 0.5 mg/mL G418.
(§4) To perform EC50 assays, cells from each HCV replicon were dispensed into 384-well plates. Compounds were dissolved in DMSO at a concentration of 10 mM and diluted in DMSO using an automated pipetting instrument. Three-fold serially diluted compounds were directly added to the cells using an automated instrument. […] Seventy-two hours later, cells were lysed and Renilla luciferase activity were quantified as recommended by the manufacturer (Promega-Madison, Wis.). Non-linear regression was performed to calculate EC50 values.

[2] = test system: genotype 2a stable HCV replicon (JFH-1 strain) in Huh-7-derived cells; assay: Stable subgenomic HCV replicon EC50, genotype 2a (Renilla luciferase); conditions: Hepatitis C virus, stable replicon genotype 2a, 72 h, read-out: EC50 2A RLUC
Protocol: as §1, §2, §3, §4

[3] = test system: genotype 3a stable HCV replicon (S52 strain) in Huh-7-derived cells; assay: Stable subgenomic HCV replicon EC50, genotype 3a (Renilla luciferase); conditions: Hepatitis C virus, 72 h, read-out: EC50 3A RLUC
Protocol: as §1, §2, §3, §4

[4] = test system: genotype 4a stable HCV replicon (ED43 strain) in Huh-7-derived cells; assay: Stable subgenomic HCV replicon EC50, genotype 4a (Renilla luciferase); conditions: Hepatitis C virus, 72 h, read-out: EC50 4A RLUC
Protocol: as §1, §2, §3, §4

[5] = test system: genotype 3a transient HCV replicon (S52 strain) in Huh-7-derived cells; assay: Transient-transfected HCV replicon EC50, genotype 3a wild type; conditions: Hepatitis C virus; transient-transfected replicon genotype 3a wild type, 72 h; read-out: EC50 3A WT
[6] = test system: genotype 1a (H77) wild-type transient HCV replicon in Huh-7-derived cells; assay: Transient-transfected HCV replicon EC50, genotype 1a wild type; conditions: Hepatitis C virus; transient-transfected replicon genotype 1a wild type, 72 h; read-out: EC50 1A WT
[7] = test system: genotype 1a transient HCV replicon, NS3/4a protease inhibitor resistant variant R155K, in Huh-7-derived cells; assay: Transient-transfected HCV replicon EC50, genotype 1a R155K; conditions: Hepatitis C virus, 72 h, read-out: EC50 1A R155K
[8] = test system: genotype 1b (Con1) wild-type transient HCV replicon in Huh-7-derived cells; assay: Transient-transfected HCV replicon EC50, genotype 1b wild type; conditions: Hepatitis C virus; transient-transfected replicon genotype 1b wild type, 72 h; read-out: EC50 1B WT
[9] = test system: genotype 1b transient HCV replicon, NS3/4a protease inhibitor resistant variant D168A, in Huh-7-derived cells; assay: Transient-transfected HCV replicon EC50, genotype 1b D168A; conditions: Hepatitis C virus, 72 h, read-out: EC50 1B D168A

Compound | EC50 [1] [nM] | EC50 [2] [nM] | EC50 [3] [nM] | EC50 [4] [nM] | EC50 [5] [nM] | EC50 [6] [nM] | EC50 [7] [nM] | EC50 [8] [nM] | EC50 [9] [nM]
COc1ccc2nc3c(nc2c1)O[C@H]1CN(C(=O)[C@H](C(C)(C)C)NC(=O)O[C@@H]2C[C@H]2CCCCC3F)[C@H](C(=O)N[C@]2(C(=O)NS(=O)(=O)C3(C)CC3)C[C@H]2C(F)F)[C@@H]1C (stereo partly drawn) [Example 47, (1aR,5S,8S,9S,10R,22aR)-5-tert-butyl-N-[(1R,2R)-2-(difluoromethyl)-1-{[(1-methylcyclopropyl)sulfonyl]carbamoyl}cyclopropyl]-18-fluoro-14-methoxy-9-methyl-3,6-dioxo-1,1a,3,4,5,6,9,10,18,19,20,21,22,22a-tetradecahydro-8H-7,10-methanocyclopropa[18,19][1,10,3,6]dioxadiazacyclononadecino[11,12-b]quinoxaline-8-carboxamide] | 3.6 | 12 | 58 | 4.2 | 17 | 5.4 | 6.1 | 2 | 12
CC[C@@H]1[C@@H]2CN(C(=O)[C@H](C(C)(C)C)NC(=O)O[C@]3(C)CCC[C@H]3CCCCCc3nc4ccc(OC)cc4nc3O2)[C@@H]1C(=O)N[C@]1(C(=O)NS(=O)(=O)C2(C)CC2)C[C@H]1CC(F)F [Example 41, (3aR,7S,10S,11S,12R,24aR)-7-tert-butyl-N-[(1R,2S)-2-(2,2-difluoroethyl)-1-{[(1-methylcyclopropyl)sulfonyl]carbamoyl}cyclopropyl]-11-ethyl-16-methoxy-3a-methyl-5,8-dioxo-1,2,3,3a,5,6,7,8,11,12,20,21,22,23,24,24a-hexadecahydro-10H-9,12-methanocyclopenta[18,19][1,10,3,6]dioxadiazacyclononadecino[11,12-b]quinoxaline-10-carboxamide] | 142 | 106 |  |  | 539 | 164 |  | 154 | 
C[C@@H]1[C@@H]2CN(C(=O)[C@H](C(C)(C)C)NC(=O)O[C@@H]3C[C@H]3CCCCC(F)(F)c3nc4ccc(Cl)cc4nc3O2)[C@@H]1C(=O)N[C@]1(C(=O)NS(=O)(=O)C2(C)CC2)C[C@H]1C(F)F [Example 88, (1aR,5S,8S,9S,10R,22aR)-5-tert-butyl-14-chloro-N-[(1R,2R)-2-(difluoromethyl)-1-{[(1-methylcyclopropyl)sulfonyl]carbamoyl}cyclopropyl]-18,18-difluoro-9-methyl-3,6-dioxo-1,1a,3,4,5,6,9,10,18,19,20,21,22,22a-tetradecahydro-8H-7,10-methanocyclopropa[18,19][1,10,3,6]dioxadiazacyclononadecino[11,12-b]quinoxaline-8-carboxamide] | 4.6 | 2.7 | 105 | 4.1 | 35 | 5 | 14 | 5.5 | 24
CC[C@@H]1[C@@H]2CN(C(=O)[C@H](C(C)(C)C)NC(=O)O[C@@H]3C[C@H]3CC/C=C/C(F)(F)C3Nc4ccc(C#N)cc4N=C3O2)[C@@H]1C(=O)N[C@]1(C(=O)NS(=O)(=O)C2(C)CC2)C[C@H]1C(F)F (stereo partly drawn) [Example 78, (1aR,5S,8S,9S,10R,19E,22aR)-5-tert-butyl-14-cyano-N-[(1R,2R)-2-(difluoromethyl)-1-{[(1-methylcyclopropyl)sulfonyl]carbamoyl}cyclopropyl]-9-ethyl-18,18-difluoro-3,6-dioxo-1,1a,3,4,5,6,9,10,17,17a,18,21,22,22a-tetradecahydro-8H-7,10-methanocyclopropa[18,19][1,10,3,6]dioxadiazacyclononadecino[11,12-b]quinoxaline-8-carboxamide] | 394 | 195 | 1120 | 225 | 194 | 189 | 225 | 156 | 248
